Assay [1] deals with Rhizopus. The assay is described as follows: Compound was tested for Percent inhibition of Amyloglucosidases from Rhizopus mold; NI means no inhibition.
The subject of another assay is Aspergillus niger. As to the kind of experiment: Inhibitor concentration against Amyloglucosidases from Aspergillus niger was tested at a dose of 1 mM; NI means no inhibition.
The target of assay [2] is Alpha-galactosidase (Coffea arabica) (UniProt Q42656). The assay is described as follows: Inhibitor concentration against Alpha-galactosidase from Coffee beans was tested at a dose of 1 mM; NI means no inhibition.
Chain of Alpha-galactosidase (Coffea arabica) (Q42656 whole entry, looked up): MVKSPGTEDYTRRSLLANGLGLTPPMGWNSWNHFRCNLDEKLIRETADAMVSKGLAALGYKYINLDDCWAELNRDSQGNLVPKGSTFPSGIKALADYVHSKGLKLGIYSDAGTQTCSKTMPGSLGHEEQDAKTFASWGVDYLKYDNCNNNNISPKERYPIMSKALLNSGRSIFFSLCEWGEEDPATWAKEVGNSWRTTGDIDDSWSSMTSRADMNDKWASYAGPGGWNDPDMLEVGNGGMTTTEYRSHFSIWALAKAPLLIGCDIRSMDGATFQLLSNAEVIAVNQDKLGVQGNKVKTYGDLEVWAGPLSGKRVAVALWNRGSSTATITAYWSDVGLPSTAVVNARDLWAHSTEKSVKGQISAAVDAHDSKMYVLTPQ
Assay [3] has as its target T1, Beta-galactosidase (Bos taurus) (UniProt Q58D55).
T1 sequence (whole entry): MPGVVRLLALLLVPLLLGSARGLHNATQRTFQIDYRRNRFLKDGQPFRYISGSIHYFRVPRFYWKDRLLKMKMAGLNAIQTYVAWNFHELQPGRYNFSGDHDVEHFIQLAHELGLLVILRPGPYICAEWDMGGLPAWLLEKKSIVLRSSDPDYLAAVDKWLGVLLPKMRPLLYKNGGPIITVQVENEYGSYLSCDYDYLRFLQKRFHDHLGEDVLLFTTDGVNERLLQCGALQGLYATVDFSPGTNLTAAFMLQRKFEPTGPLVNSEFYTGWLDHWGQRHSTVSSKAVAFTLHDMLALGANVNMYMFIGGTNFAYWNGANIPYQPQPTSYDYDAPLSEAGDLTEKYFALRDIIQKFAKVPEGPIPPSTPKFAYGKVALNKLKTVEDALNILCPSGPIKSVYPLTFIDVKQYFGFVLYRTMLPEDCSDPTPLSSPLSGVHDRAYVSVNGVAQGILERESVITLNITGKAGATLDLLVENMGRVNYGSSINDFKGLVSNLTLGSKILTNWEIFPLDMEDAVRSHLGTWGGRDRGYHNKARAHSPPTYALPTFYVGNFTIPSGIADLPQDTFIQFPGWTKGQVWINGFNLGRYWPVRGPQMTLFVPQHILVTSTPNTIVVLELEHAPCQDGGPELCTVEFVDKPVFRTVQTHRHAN
As to the kind of experiment: Compound was tested for Percent inhibition of Beta-galactosidase from Bovine liver at a dose of 1 mM.

The target in assay [4] is Beta-galactosidase (Escherichia coli) (UniProt Q8VNN2). The assay is described as follows: Compound was tested for Percent inhibition of Beta-galactosidase from Escherichia coli at a dose of 1 mM.
Chain of Beta-galactosidase (Escherichia coli) (Q8VNN2 whole entry, looked up): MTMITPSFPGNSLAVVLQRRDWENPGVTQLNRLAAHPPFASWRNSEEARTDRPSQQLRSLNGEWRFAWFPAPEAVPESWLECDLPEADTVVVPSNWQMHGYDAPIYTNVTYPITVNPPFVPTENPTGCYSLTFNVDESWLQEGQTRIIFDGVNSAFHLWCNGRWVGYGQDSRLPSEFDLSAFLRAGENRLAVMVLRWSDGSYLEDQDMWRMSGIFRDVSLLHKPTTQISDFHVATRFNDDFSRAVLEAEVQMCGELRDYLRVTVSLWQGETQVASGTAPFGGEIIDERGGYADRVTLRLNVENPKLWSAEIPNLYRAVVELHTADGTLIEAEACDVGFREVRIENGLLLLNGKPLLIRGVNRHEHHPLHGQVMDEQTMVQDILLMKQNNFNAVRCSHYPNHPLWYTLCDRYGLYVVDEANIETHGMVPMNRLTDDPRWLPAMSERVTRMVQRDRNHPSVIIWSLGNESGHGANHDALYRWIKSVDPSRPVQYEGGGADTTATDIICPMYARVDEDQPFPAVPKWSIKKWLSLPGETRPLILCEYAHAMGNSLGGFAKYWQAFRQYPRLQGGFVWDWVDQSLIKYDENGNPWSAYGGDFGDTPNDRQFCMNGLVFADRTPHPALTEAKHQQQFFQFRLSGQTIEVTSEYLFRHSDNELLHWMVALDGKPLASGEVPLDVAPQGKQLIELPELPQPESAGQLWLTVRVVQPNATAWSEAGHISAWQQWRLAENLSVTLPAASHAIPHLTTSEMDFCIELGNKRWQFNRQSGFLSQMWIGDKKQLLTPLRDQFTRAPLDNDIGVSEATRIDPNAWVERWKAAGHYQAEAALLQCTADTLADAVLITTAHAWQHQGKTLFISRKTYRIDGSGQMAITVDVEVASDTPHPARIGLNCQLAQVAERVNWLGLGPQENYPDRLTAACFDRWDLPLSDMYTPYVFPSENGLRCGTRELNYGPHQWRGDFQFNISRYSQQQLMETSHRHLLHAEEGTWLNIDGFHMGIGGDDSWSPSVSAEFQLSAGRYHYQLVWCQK
For assay [5], the system named is Prunus dulcis. As to the kind of experiment: Inhibition of alpha-Mannosidases from Almond was tested at a dose of 1 mM; NI means no inhibition.
The target of assay [6] is T2, Beta-galactosidase (Aspergillus niger) (UniProt P29853).
T2 sequence (whole entry): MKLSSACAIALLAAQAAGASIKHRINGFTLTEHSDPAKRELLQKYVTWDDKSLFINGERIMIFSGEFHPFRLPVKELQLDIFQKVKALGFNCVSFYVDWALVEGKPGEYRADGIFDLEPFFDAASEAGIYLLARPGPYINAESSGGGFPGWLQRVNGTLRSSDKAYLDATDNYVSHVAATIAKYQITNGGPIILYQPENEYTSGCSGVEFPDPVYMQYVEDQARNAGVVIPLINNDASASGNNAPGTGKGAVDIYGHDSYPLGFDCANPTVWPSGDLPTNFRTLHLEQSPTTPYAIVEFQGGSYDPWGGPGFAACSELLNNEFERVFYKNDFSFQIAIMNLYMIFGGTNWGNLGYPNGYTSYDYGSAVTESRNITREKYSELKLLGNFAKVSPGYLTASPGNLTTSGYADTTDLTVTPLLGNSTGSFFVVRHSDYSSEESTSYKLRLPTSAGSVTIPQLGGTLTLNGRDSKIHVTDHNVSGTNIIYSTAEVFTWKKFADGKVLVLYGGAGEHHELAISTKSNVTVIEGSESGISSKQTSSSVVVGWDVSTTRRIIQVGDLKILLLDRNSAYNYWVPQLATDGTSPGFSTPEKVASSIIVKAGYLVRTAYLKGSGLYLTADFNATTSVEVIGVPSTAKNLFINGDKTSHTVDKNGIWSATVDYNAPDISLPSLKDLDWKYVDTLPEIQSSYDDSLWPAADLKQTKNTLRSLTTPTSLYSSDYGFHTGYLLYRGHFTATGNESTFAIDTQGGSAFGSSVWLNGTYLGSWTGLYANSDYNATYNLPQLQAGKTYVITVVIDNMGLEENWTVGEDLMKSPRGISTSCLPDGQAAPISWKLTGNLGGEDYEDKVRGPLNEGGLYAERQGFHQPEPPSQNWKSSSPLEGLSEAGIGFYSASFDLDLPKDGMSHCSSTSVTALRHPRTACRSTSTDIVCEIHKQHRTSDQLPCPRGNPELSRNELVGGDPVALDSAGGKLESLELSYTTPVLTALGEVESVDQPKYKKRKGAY
As to the kind of experiment: Compound was tested for Percent inhibition of Beta-galactosidase from Aspergillus niger at a dose of 1 mM.

A further assay concerns Canavalia ensiformis. The assay is described as follows: Compound was tested for Percent inhibition of alpha-Mannosidases from Jack beans at a dose of 1 mM.
The target in assay [7] is Beta-galactosidase (Escherichia coli) (UniProt Q8VNN2). The assay is described as follows: Inhibitor concentration against Beta-galactosidase from Escherichia coli was tested at a dose of 1 mM; NI means no inhibition.
For assay [8], the target named is Alpha-galactosidase (Coffea arabica) (UniProt Q42656). As to the kind of experiment: Compound was tested for Percent inhibition of Alpha-galactosidase from Coffee bean at a dose of 1 mM.
Assay [9] concerns the target T2, Beta-galactosidase (Aspergillus niger). As to the kind of experiment: Inhibitor concentration against Beta-galactosidase from Aspergillus niger was tested at a dose of 1 mM; NI means no inhibition.
The subject of assay [10] is Prunus dulcis. The assay is described as follows: Inhibitor concentration against alpha-Mannosidases from Almond was tested at a dose of 1 mM.
The target of assay [11] is alpha-galactosidase (Escherichia coli) (UniProt P06720). The assay is described as follows: Inhibitor concentration against alpha-Galactosidase from Escherichia coli was tested at a dose of 1 mM; NI means no inhibition.
Chain of alpha-galactosidase (Escherichia coli) (P06720 whole entry, looked up): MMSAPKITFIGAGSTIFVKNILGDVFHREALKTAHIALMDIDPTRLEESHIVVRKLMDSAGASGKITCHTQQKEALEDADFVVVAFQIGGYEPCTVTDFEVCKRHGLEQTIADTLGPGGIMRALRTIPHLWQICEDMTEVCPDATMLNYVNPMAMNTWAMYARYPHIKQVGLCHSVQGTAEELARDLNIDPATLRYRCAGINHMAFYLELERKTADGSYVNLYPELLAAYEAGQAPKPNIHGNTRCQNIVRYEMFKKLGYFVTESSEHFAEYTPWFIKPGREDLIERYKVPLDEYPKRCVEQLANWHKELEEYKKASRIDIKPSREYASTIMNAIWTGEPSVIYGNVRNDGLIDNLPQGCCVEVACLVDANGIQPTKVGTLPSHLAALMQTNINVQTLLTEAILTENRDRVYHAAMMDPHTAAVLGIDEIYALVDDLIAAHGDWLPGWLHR
In assay [12] the target is T3, Tissue alpha-L-fucosidase (Homo sapiens) (UniProt P04066).
T3 sequence (whole entry): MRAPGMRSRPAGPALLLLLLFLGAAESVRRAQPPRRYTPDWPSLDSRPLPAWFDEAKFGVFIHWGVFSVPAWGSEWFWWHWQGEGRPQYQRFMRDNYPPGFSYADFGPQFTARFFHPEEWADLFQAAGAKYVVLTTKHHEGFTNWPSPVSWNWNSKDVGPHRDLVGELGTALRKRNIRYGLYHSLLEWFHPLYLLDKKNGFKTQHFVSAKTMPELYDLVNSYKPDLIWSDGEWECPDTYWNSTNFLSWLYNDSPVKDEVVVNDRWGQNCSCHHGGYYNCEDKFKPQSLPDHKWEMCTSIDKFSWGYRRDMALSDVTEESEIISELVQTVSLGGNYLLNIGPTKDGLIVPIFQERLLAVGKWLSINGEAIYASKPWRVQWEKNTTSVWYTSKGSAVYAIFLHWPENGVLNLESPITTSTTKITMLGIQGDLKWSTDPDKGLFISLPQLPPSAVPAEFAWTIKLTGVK
The assay is described as follows: Compound was tested for Percent inhibition of alpha-L-Fucosidase from Human placenta at a dose of 1 mM.

Assay [13] concerns Prunus dulcis. As to the kind of experiment: Inhibitor concentration against alpha-Mannosidases from Almond was tested at a dose of 1 mM; NI means no inhibition.
Assay [14] concerns Prunus dulcis. The assay is described as follows: Inhibition of alpha-Mannosidases from Almonds was tested at a dose of 1 mM.
Assay [15] has as its target Alpha-galactosidase (Coffea arabica) (UniProt Q42656). As to the kind of experiment: Compound showed Non competitive inhibition against Alpha-galactosidase from coffee bean; NI means no inhibition at a dose of 1 mM.
Assay [16] addresses T4, Beta-galactosidase (Bos taurus, UniProt Q58D55).
T4 sequence (Q58D55 whole entry): T1 sequence (whole entry)
As to the kind of experiment: Inhibitor concentration against Beta-galactosidase from Bovine liver.

Assay [17] concerns the target T5, Beta-galactosidase (Aspergillus niger, UniProt P29853).
T5 sequence (P29853 whole entry): T2 sequence (whole entry)
The assay is described as follows: Inhibition constant(Non competitive) of compound against Beta-galactosidase from Aspergillus niger.

For assay [18], the target named is T5, Beta-galactosidase. The assay is described as follows: Inhibitor concentration against Beta-galactosidase from Aspergillus niger.
The test system of assay [19] is Prunus dulcis. The assay is described as follows: Inhibitor concentration against alpha-Mannosidases from Almonds was tested at a dose of 1 mM.
Assay [20] deals with T2, Beta-galactosidase (Aspergillus niger). The assay is described as follows: Compound was tested for Percent inhibition of Beta-galactosidase from Aspergillus niger. The settings on record: concentration not given here.
Assay [21] concerns the target T5, Beta-galactosidase. As to the kind of experiment: Inhibitor concentration against Beta-galactosidase from Aspergillus niger was tested at a dose of 1 mM.
Assay [22] concerns Rhizopus. The assay is described as follows: Inhibitor concentration against Amyloglucosidases from Rhizopus mold was tested at a dose of 1 mM; NI means no inhibition.
The target in assay [23] is Beta-galactosidase (Escherichia coli) (UniProt Q8VNN2). As to the kind of experiment: Inhibitor concentration against Beta-galactosidase from was Escherichia coli tested at a dose of 1 mM; NI means no inhibition.

Activity calls are given as the source filed them. The rule behind the calls is not given here.

As to `CCOC(=O)c1cc([C@H]2NC[C@@H](O)[C@H]2O)oc1C`, the inhibition result in the assay on Rhizopus [1] and in the assay with Aspergillus niger was “inactive” throughout. Besides, the Ki result in assay [2] was “Not Active”. The inhibition is 78% in assay [3]; 83% in assay [4]; 37% in the assay on Prunus dulcis [5]; 99% in [6]; 49% in the assay with Canavalia ensiformis.
Turning to `Cc1oc([C@@H]2NC[C@@H](O)[C@H]2O)cc1C(=O)NC(C)C`, the inhibition amounted to 23% in the assay with Aspergillus niger, 29% in assay [8], 38% in [3] and 9% with Prunus dulcis [10]. Further, the inhibition result in [7] and in assay [9] was “inactive” each time.
Take `CCOC(=O)c1cc([C@@H]2NC[C@@H](O)[C@H]2O)oc1C`: the inhibition result (in the assay with Aspergillus niger; in assay [11]; in the assay on Prunus dulcis [13]) was “inactive” in each case. Besides, the inhibition in [3] is 57%; in assay [12], 76%; in assay [6] it was 80%; in the assay with Canavalia ensiformis, 38%.
As to `CCN(CC)C(=O)c1cc([C@H]2NC[C@@H](O)[C@H]2O)oc1C`, the inhibition was 38% with Prunus dulcis [14]; “No inhibition” in assay [15]; 90% in [3]; 33% in assay [4]; 96% in assay [6]; 37% in the assay on Canavalia ensiformis. Also, the inhibition result in the assay with Rhizopus [1] and in the assay on Aspergillus niger was “inactive” each time. For the same compound, the figures for the IC50 on Beta-galactosidase [16] and against Beta-galactosidase [18] were 42 µM and 28 µM, respectively. The same compound yielded an inhibitory constant (Ki) on Beta-galactosidase [17] of 30 µM.
Consider `CCN(CC)C(=O)c1cc([C@@H]2NC[C@@H](O)[C@H]2O)oc1C`, for which the inhibition entry (with Aspergillus niger; in assay [7]) was “inactive” each time. In addition, the inhibition was 58% in assay [3], 91% in assay [12], 27% with Canavalia ensiformis and 31% in the assay with Prunus dulcis [19].
Turning to `Cc1oc([C@H]2NC[C@@H](O)[C@H]2O)cc1C(=O)NC(C)C`, the inhibition in [20] came to 79%; in assay [3], 49%; in assay [12] it was 39%. For the same compound, the inhibition entry (with Aspergillus niger; in the assay on Rhizopus [22]; in [23]) was “inactive” throughout. For the same compound, the 50% inhibitory concentration (IC50) came out at 250 µM against Beta-galactosidase [21] and 1000 µM against Beta-galactosidase [16].

Values taken from ChEMBL document CHEMBL1134886, “Synthesis of [(2S,3S,4R)-3,4-dihydroxypyrrolidin-2-yl]-5-methylfuran-4-carboxylic acid derivatives: new leads as selective beta-galactosidase inhibitors” (Bioorg Med Chem Lett, 2002).
